From patent US20050096308A1, “Antibacterial agents” (priority 2003, published 2005)
Converted amounts (≈) assume the structure as drawn.

Key:
Assay in all cases: Antibacterial assay (Test A), standard microtitration, MIC
Assay type in all cases: cell-based
[1] = test system: E. coli MC4100; details: Escherichia coli; Gram Negative Bacteria; strain MC4100; read-out: Minimum Inhibitory Concentrations E. coli MC4100
Experimental: (§1) Test A—Antibacterial Assays
(§2) The compounds of the present invention were tested against an assortment of Gram-negative and Gram-positive organisms using standard microtitration techniques (Cohen et. al., Antimicrob., 1985;28:766; Heifetz, et. al., Antimicrob., 1974;6:124).

[2] = test system: H. influenzae HI-3542; details: Haemophilus influenzae, HI3542; Gram Negative Bacteria; strain HI-3542; read-out: Minimum Inhibitory Concentrations H. influenzae HI-3542
Experimental: as §1, §2

[3] = test system: M. catarrhalis BC-3531; details: Moraxella catarrhalis, BC3531; Gram Negative Bacteria; strain BC-3531; read-out: Minimum Inhibitory Concentrations M. catarrhalis BC-3531
Experimental: as §1, §2

[4] = test system: E. faecalis MGH-2; details: Enterococcus faecalis, MGH2; Gram Positive Bacteria; strain MGH-2; read-out: Minimum Inhibitory Concentrations E. faecalis MGH-2
Experimental: as §1, §2

[5] = test system: S pyogenes C203; details: Gram Positive Bacteria; strain C203; read-out: Minimum Inhibitory Concentrations S pyogenes C203
Experimental: as §1, §2

[6] = test system: S. aureus UC-76; details: Staphylococcus aureus, UC76; Gram Positive Bacteria; strain UC-76; read-out: Minimum Inhibitory Concentrations S. aureus UC-76
Experimental: as §1, §2

| SMILES | MIC [1] [µg/mL] | MIC [2] [µg/mL] | MIC [3] [µg/mL] | MIC [4] [µg/mL] | MIC [5] [µg/mL] | MIC [6] [µg/mL] |
| --- | --- | --- | --- | --- | --- | --- |
| Nc1nc(-n2c(=O)n(N)c(=O)c3cc(F)c(N4CC(O)C4)c(Cl)c32)c(F)cc1F [drawing 117] | 64 (≈ 149 µM) | 1 (≈ 2.33 µM) | 4 (≈ 9.33 µM) | – | – | – |
| Cc1c(N2CC(O)C2)c(F)cc2c(=O)n(N)c(=O)n(C3CC3)c12 [drawing 118] | 1 (≈ 3.12 µM) | 32 (≈ 99.9 µM) | 1 (≈ 3.12 µM) | – | – | – |
| Cc1c(N2CC(CCO)C2)c(F)cc2c(=O)n(N)c(=O)n(C3CC3)c12 [drawing 119] | 32 (≈ 91.9 µM) | 4 (≈ 11.5 µM) | 4 (≈ 11.5 µM) | – | – | – |
| Nn1c(=O)c2cc(F)c(N3CC(O)(C4CC4)C3)c(Cl)c2n(C2CC2)c1=O [drawing 120] | 0.002 (≈ 0.00525 µM) | 0.03 (≈ 0.0788 µM) | 0.03 (≈ 0.0788 µM) | – | – | – |
| Nn1c(=O)c2cc(F)c(N3CC(O)(c4ccc(F)cc4)C3)c(Cl)c2n(C2CC2)c1=O [drawing 121] | 64 (≈ 147 µM) | 32 (≈ 73.6 µM) | 16 (≈ 36.8 µM) | – | – | – |
| CC(C)C1(O)CN(c2c(F)cc3c(=O)n(N)c(=O)n(C4CC4)c3c2Cl)C1 [drawing 122] | 64 (≈ 167 µM) | 32 (≈ 83.6 µM) | 32 (≈ 83.6 µM) | – | – | – |
| Nc1nc(-n2c(=O)n(N)c(=O)c3cc(F)c(N4CC(O)C4)c(Cl)c32)c(F)cc1F [drawing 123] | – | – | – | 16 (≈ 37.3 µM) | 16 (≈ 37.3 µM) | 4 (≈ 9.33 µM) |
| Cc1c(N2CC(O)C2)c(F)cc2c(=O)n(N)c(=O)n(C3CC3)c12 [drawing 124] | – | – | – | 32 (≈ 99.9 µM) | 16 (≈ 49.9 µM) | 1 (≈ 3.12 µM) |
| Cc1c(N2CC(CCO)C2)c(F)cc2c(=O)n(N)c(=O)n(C3CC3)c12 [drawing 125] | – | – | – | 16 (≈ 45.9 µM) | 16 (≈ 45.9 µM) | 4 (≈ 11.5 µM) |
| Nn1c(=O)c2cc(F)c(N3CC(O)(C4CC4)C3)c(Cl)c2n(C2CC2)c1=O [drawing 126] | – | – | – | 0.5 (≈ 1.31 µM) | 0.5 (≈ 1.31 µM) | 0.03 (≈ 0.0788 µM) |
| Nn1c(=O)c2cc(F)c(N3CC(O)(c4ccc(F)cc4)C3)c(Cl)c2n(C2CC2)c1=O [drawing 127] | – | – | – | 16 (≈ 36.8 µM) | 8 (≈ 18.4 µM) | 4 (≈ 9.2 µM) |
| CC(C)C1(O)CN(c2c(F)cc3c(=O)n(N)c(=O)n(C4CC4)c3c2Cl)C1 [drawing 128] | – | – | – | 32 (≈ 83.6 µM) | 64 (≈ 167 µM) | 16 (≈ 41.8 µM) |
